The source of these data is ChEMBL document CHEMBL1128909, “Catechol based inhibitors of 15-lipoxygenase” (Bioorg Med Chem Lett, 1996).

In general, IC50 refers to the midpoint of a concentration-inhibition curve. Low readings indicate greater potency, high ones weaker potency.

The target in test [1] is T1, Polyunsaturated fatty acid lipoxygenase ALOX12 (Homo sapiens, UniProt P18054).
T1 sequence (P18054 whole entry): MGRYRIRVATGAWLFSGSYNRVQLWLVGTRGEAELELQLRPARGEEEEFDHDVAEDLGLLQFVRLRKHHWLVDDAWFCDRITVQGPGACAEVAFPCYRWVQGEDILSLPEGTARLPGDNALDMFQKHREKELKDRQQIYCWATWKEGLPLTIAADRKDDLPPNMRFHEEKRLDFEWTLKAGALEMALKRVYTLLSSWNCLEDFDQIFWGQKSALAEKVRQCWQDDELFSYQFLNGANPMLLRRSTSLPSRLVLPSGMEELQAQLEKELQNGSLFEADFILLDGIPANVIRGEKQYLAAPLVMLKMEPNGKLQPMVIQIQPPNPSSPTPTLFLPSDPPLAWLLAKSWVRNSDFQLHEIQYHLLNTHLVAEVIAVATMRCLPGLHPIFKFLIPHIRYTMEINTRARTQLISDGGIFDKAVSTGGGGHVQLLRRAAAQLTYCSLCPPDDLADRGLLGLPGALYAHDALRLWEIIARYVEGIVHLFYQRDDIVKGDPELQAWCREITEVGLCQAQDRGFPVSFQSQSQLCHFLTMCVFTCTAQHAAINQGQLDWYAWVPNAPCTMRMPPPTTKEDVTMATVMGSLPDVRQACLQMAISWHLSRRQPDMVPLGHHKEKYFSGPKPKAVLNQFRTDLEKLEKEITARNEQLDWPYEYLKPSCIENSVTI
Kind of test: Inhibitory activity against human platelet 12-lipoxygenase.

Test [2] deals with T2, Polyunsaturated fatty acid 5-lipoxygenase (Rattus norvegicus, UniProt P12527).
T2 sequence (P12527 whole entry): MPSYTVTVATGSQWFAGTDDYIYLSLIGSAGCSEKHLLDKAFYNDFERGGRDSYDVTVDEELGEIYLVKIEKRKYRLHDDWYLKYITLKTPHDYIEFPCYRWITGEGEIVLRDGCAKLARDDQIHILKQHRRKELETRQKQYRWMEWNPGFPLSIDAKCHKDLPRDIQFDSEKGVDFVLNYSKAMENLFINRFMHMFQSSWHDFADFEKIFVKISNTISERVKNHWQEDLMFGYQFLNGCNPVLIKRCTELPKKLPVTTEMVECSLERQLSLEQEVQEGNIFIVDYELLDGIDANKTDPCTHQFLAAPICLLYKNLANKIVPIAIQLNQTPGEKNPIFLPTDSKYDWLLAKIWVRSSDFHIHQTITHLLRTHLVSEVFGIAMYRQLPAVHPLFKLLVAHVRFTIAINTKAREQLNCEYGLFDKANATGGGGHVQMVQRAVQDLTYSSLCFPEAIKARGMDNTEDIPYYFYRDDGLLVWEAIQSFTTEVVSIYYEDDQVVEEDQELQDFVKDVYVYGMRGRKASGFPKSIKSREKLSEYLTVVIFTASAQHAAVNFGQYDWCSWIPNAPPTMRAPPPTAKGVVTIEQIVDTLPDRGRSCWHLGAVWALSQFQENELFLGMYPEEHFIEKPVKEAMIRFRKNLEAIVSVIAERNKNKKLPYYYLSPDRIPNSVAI
In words: Inhibitory activity against rat basophilic leukemia cell 5-lipoxygenase (5-LO).

Turning to `O=C(Nc1ccc(CCc2ccc(O)c(O)c2)cc1)c1ccccc1O`, the IC50 amounted to 5000 nM in test [1] and 280 nM in test [2].
